# Results taken from patent US5017573A, “Indazole-3-carboxylic acid derivatives” (Dainippon Pharmaceutical Co., Ltd., priority 1988, dated 1991).
# Columns and labels:
# [1] = test system: serotonin 3 (5--HT3) receptor; experiment: Effect on Von Bezold-Jarisch reflex in rats (serotonin 3 receptor antagonist activity); type: in vivo, rat; conditions: male Wistar or SD rats, anesthetized; test compound 1 μg/kg i.v. 3 minutes before 2-methylserotonin (10-30 μg/kg i.v.)
# Description: Effect on Von Bezold-Jarisch reflex in rats
# (Serotonin 3 receptor antagonist activity)
# The test was carried out substantially by the method of Fozard et al. [cf. Arch. Pharmacology, 326, 36-44 (1984)]. Male Wistar rats weighing 250-350 g or male SD rats weighing 300-400 g were anesthetized with urethane (1.5 g/kg, interraperitoneal) and placed on their back. An electrocardiogram (lead II) and a heart rate on the animals were recorded on an inkwriting oscillograph via a biophysical amplifier and a pulse rate tachomether, respectively. […] After stable responses were obtained following repeated administration of 2-methylserotonin at 15-minute intervals, the test compound (1 μg/kg) was administered intravenously 3 minutes before administration of 2-methylserotonin. The inhibition rate of the test compound was calculated as follows. [formula]
# [2] = test system: cisplatin-induced vomiting in ferrets; experiment: Effect on cisplatin-induced vomiting in ferrets; type: in vivo, ferret; conditions: male ferrets; 0.03 mg/kg i.v. twice (30 minutes before and 45 minutes after cisplatin 10 mg/kg); emetic episodes for 3 hours
# Description: Effect on cisplatin-induced vomiting in ferrets and acute toxicity in mice
# Male ferrets (Marshall Lab., U.S.A.) weighing approximately 1 kg were used. For intravenous injection, a cannule was implanted in the cervical vein under pentobarbital anethesia. The experiments were started 3 and 4 days after the operation. Saline (2 ml/kg) as a control group and a dose (0.03 mg/kg) of a test compound as a treated group were administered twice, i.e., 30 minutes before and 45 minutes after administratin of 10 mg/kg of cisplatin (Sigma, U.S.A) dissolved in saline (3 ml/kg). The number of emetic episodes for 3 hours after administration of cisplatin was recorded, and the inhibition rate of the test compound was calculated as follows. [formula]
# All test compounds were administered intravenously.
# mice = experiment: Acute toxicity in mice; type: in vivo, mouse; conditions: male Std-ddY mice; 100 mg/kg i.p.; mortality observed for 7 days
# Description: An acute toxicity test was performed using male Std-ddY mice weighing 25-30 g. Test compounds dissolved or suspended in 0.5 % tragacanth solution were administered intraperitoneally.
Compound,Inhibition rate (%) of Von Bezold-Jarisch reflex [1] [%],"Inhibition of emetic episodes in ferrets, inhibition rate (%) [2] [%]",Acute toxicity in mice (number of dead animals/number of animals used) (mice)
"CCC(=O)n1nc(C(=O)NC2CN(C)CCN(Cc3ccccc3)C2)c2ccccc21 (stereo not shown) [Example 53, N-(1-benzyl-4-methylhexahydro-1H-1,4-diazepin-6-yl)-1-propionyl-1H-indazole-3-carboxamide]",83,29,1/5
"CN1CCN(Cc2ccccc2)CC(NC(=O)c2nn(C)c3ccccc23)C1 (stereo not shown) [Example 33, N-(1-benzyl-4-methylhexahydro-1H-1,4-diazepin-6-yl)-1-methyl-1H-indazole-3-carboxamide]",96,44,2/5
"Cc1cccc(CN2CCN(C)CC(NC(=O)c3n[nH]c4ccccc34)C2)c1 (stereo not shown) [Example 1(a), N-[1-(3-methylbenzyl)4-methylhexahydro-1H-1,4-diazepin-6-yl]-1H-indazole-3-carboxamide]",82,89,1/5
CN1CCN(Cc2ccc(Br)cc2)CC(NC(=O)c2n[nH]c3ccccc23)C1 (stereo not shown) [Example 10],82,,
Cc1ccc(CN2CCN(C)CC(NC(=O)c3n[nH]c4ccccc34)C2)cc1 (stereo not shown) [Example 3],92,,
"CN1CCN(Cc2cccnc2)CC(NC(=O)c2n[nH]c3ccccc23)C1 (stereo not shown) [Example 16, N-[1-(3-pyridylmethyl)-4-methylhexahydro-1H-1,4-diazepin-6-yl]-1H-indazole-3-carboxamide]",85,82,0/5
CN1CCN(Cc2ccc(C#N)cc2)CC(NC(=O)c2n[nH]c3ccccc23)C1 (stereo not shown) [Example 13],83,,
CN1CCN(Cc2cccc(F)c2)CC(NC(=O)c2n[nH]c3ccccc23)C1 (stereo not shown) [Example 7],84,,
"Cc1cccc(CN2CCN(C)CC(NC(=O)c3n[nH]c4ccccc34)C2)c1 (stereo not shown) [1(b), N-[1-(3-methylbenzyl)4-methylhexahydro-1H-1,4-diazepin-6-yl]-1H-indazole-3-carboxamide]",83,,
CN1CCN(Cc2ccccc2F)CC(NC(=O)c2n[nH]c3ccccc23)C1 (stereo not shown) [Example 6],75,,
CN1CCN(Cc2cc(F)cc(F)c2)CC(NC(=O)c2n[nH]c3ccccc23)C1 (stereo not shown) [Example 23],86,,
"CC(=O)n1nc(C(=O)NC2CN(C)CCN(Cc3ccccc3)C2)c2ccccc21 (stereo not shown) [Example 52, N-(1-benzyl-4-methylhexahydro-1H-1,4-diazepin-6-yl)-1-acetyl-1H-indazole-3-carboxamide]",89,,
COc1ccc(CN2CCN(C)CC(NC(=O)c3n[nH]c4ccccc34)C2)cc1 (stereo not shown) [Example 5],78,,
"CN1CCN(Cc2ccccc2C#N)CC(NC(=O)c2n[nH]c3ccccc23)C1 (stereo not shown) [Example 11, N-[1-(2-cyanobenzyl)-4-methylhexahydro-1H-1,4-diazepin-6-yl]-1H-indazole-3-carboxamide]",95,,
"CN1CCN(Cc2ccccc2)CC(NC(=O)c2n[nH]c3ccccc23)C1 (stereo not shown) [Example 32, N-(1-benzyl-4-methylhexahydro-1H-1,4-diazepin-6-yl)-1H-indazole-3-carboxamide]",,62,0/5
C=CCn1nc(C(=O)NC2CN(C)CCN(Cc3ccccc3)C2)c2ccccc21 (stereo not shown) [Example 48],79,,
"CC1CN(Cc2ccccc2)CC(NC(=O)c2n[nH]c3ccccc23)CN1C (single isomer, unassigned) [Example 67, N-(1-benzyl-3,4-dimethylhexahydro-1H-1,4-diazepin-6-yl)-1H -indazole-3-carboxamide]",72,,
CCCCn1nc(C(=O)NC2CN(C)CCN(Cc3ccccc3)C2)c2ccccc21 (stereo not shown) [Example 46],70,,
"CC1CN(C)CC(NC(=O)c2n[nH]c3ccccc23)CN1Cc1ccccc1 (single isomer, unassigned) [Example 69, N-(1-benzyl-2,4-dimethylhexahydro-1H-1,4-diazepin-6-yl)-1H -indazole-3-carboxamide]",90,,
CN1CCN(Cc2ccncc2)CC(NC(=O)c2n[nH]c3ccccc23)C1 (stereo not shown) [Example 17],91,62,1/5
CN1CCN(Cc2ccc(F)cc2)CC(NC(=O)c2n[nH]c3ccccc23)C1 (stereo not shown) [Example 8],77,71,0/5
